Measured values: ChEMBL document CHEMBL5620408, “Discovery of novel diarypyrimidine derivatives bearing six-membered non-aromatic heterocycles as potent HIV-1 NNRTIs with improved anti-resistance and drug-like profiles” (Eur J Med Chem, 2023)

Columns and labels:
[1] = Selectivity index, ratio of CC50 for human MT4 cells to EC50 for antiviral activity against HIV RES056
[2] = test system: Human immunodeficiency virus 1; assay: microbe, parasite or virus in culture; conditions: Human immunodeficiency virus 1, RES056, MT4
Description: Antiviral activity against HIV1 RES056 infected in MT-4 cells assessed as viral induced cytopathic effect by MTT assay

[3] = test system: Human immunodeficiency virus 1; assay: Antiviral activity against HIV1 NL4-3 infected in MT4 cells; type: functional, organism-based; conditions: Human immunodeficiency virus 1, NL4-3, MT4
[4] = target: Human immunodeficiency virus type 1 reverse transcriptase (Human immunodeficiency virus 1, UniProt Q72547); assay: Inhibition of wild type HIV-1 reverse transcriptase
MT4 = assay: Cytotoxicity against human MT4 cells; type: toxicity, cell-based
[5] = test system: Human immunodeficiency virus 1; assay: microbe, parasite or virus in culture; conditions: Human immunodeficiency virus 1, IIIB, MT4
Description: Antiviral activity against HIV1 IIIB infected in MT-4 cells assessed as viral induced cytopathic effect by MTT assay

[6] = Cytotoxicity against human MT4 cells assessed as reduction in cell viability by MTT assay; type: toxicity, cell-based
[7] = Selectivity index, ratio of CC50 for human MT4 cells to EC50 for antiviral activity against HIV IIIB
[8] = test system: Human immunodeficiency virus 1; assay: Antiviral activity against HIV1 harboring F227L/V106A double mutant infected in MT4 cells; type: functional, organism-based; conditions: Human immunodeficiency virus 1, MT4
[9] = test system: Human immunodeficiency virus 1; assay: Antiviral activity against HIV1 harboring E138K mutant infected in MT4 cells; type: functional, organism-based; conditions: Human immunodeficiency virus 1, MT4
[10] = test system: Human immunodeficiency virus 1; assay: Antiviral activity against HIV1 harboring L100I mutant infected in MT4 cells; type: functional, organism-based; conditions: Human immunodeficiency virus 1, MT4
[11] = test system: Human immunodeficiency virus 1; assay: Antiviral activity against HIV1 harboring K103N mutant infected in MT4 cells; type: functional, organism-based; conditions: Human immunodeficiency virus 1, MT4
[12] = test system: Human immunodeficiency virus 1; assay: Antiviral activity against HIV1 harboring Y188L mutant infected in MT4 cells; type: functional, organism-based; conditions: Human immunodeficiency virus 1, MT4
[13] = test system: Human immunodeficiency virus 1; assay: Antiviral activity against HIV1 harboring Y181C mutant infected in MT4 cells; type: functional, organism-based; conditions: Human immunodeficiency virus 1, MT4

## Cc1cc(C#N)cc(C)c1Oc1ccnc(Nc2ccc(N3CCN(S(=O)(=O)C(C)C)CC3)c(F)c2)n1
[1]
  selectivity ratio: < 1
[2]
  EC50: > 192000 nM
[3]
  EC50: 24.6 nM
[4]
  IC50: 140 nM
MT4
  Activity: Non-Toxic
[5]
  EC50: 8 nM
[6]
  CC50: 192000 nM
[7]
  selectivity ratio: 24500

## CCS(=O)(=O)N1CCN(c2ccc(Nc3nccc(Oc4c(C)cc(C#N)cc4C)n3)cc2F)CC1
[2]
  EC50: > 245000 nM
[8]
  EC50: 55 nM
[3]
  EC50: 10.2 nM
[4]
  IC50: 58 nM
[9]
  EC50: 64 nM
MT4
  Activity: Non-Toxic
[5]
  EC50: 4 nM
[6]
  CC50: > 245000 nM
[10]
  EC50: 130 nM
[11]
  EC50: 21 nM
[12]
  EC50: > 245000 nM
[13]
  EC50: 190 nM
[7]
  selectivity ratio: > 55100

## Cc1cc(/C=C/C#N)cc(C)c1Oc1ccnc(Nc2ccc(CN3CCN(S(C)(=O)=O)CC3)cc2)n1
[8]
  EC50: 210 nM
[3]
  EC50: 0.79 nM
[4]
  IC50: 33 nM
[9]
  EC50: 9 nM
MT4
  Activity: Non-Toxic
[10]
  EC50: 14 nM
[11]
  EC50: 4 nM
[12]
  EC50: 1320 nM

## Cc1ccnc2c1NC(=O)c1cccnc1N2C1CC1 [NEVIRAPINE]
[2]
  EC50: > 15000 nM
[8]
  EC50: > 15000 nM
[6]
  CC50: > 15000 nM
[11]
  EC50: 6040 nM
[12]
  EC50: > 15000 nM
[13]
  EC50: 7400 nM

## Cc1cc(/C=C/C#N)cc(C)c1Oc1ccnc(Nc2ccc(N3CCN(S(=O)(=O)N(C)C)CC3)c(F)c2)n1
[1]
  selectivity ratio: < 1
[2]
  EC50: > 4590 nM
[8]
  EC50: 68 nM
[3]
  EC50: 5.67 nM
[4]
  IC50: 78 nM
[9]
  EC50: 32 nM
MT4
  Activity: Non-Toxic
[5]
  EC50: 5 nM
[6]
  CC50: 4590 nM
[10]
  EC50: 58 nM
[11]
  EC50: 9 nM
[12]
  EC50: > 4590 nM
[13]
  EC50: 120 nM
[7]
  selectivity ratio: 993

## O=C1Nc2ccc(Cl)cc2[C@@](C#CC2CC2)(C(F)(F)F)O1 [EFAVIRENZ]
[6]
  CC50: > 6330 nM
[10]
  EC50: 53 nM
[12]
  EC50: 250 nM

## Cc1cc(/C=C/C#N)cc(C)c1Oc1ccnc(Nc2ccc(N3CCN(S(=O)(=O)C4CC4)CC3)cc2)n1
[1]
  selectivity ratio: < 1
[2]
  EC50: > 216000 nM
[3]
  EC50: 6.12 nM
[4]
  IC50: 83 nM
MT4
  Activity: Non-Toxic
[5]
  EC50: 6 nM
[6]
  CC50: 216000 nM
[7]
  selectivity ratio: 37300

## Cc1cc(/C=C/C#N)cc(C)c1Oc1ccnc(Nc2ccc(N3CCN(S(=O)(=O)C(C)C)CC3)cc2)n1
[1]
  selectivity ratio: < 1
[2]
  EC50: > 1730 nM
[3]
  EC50: 25.5 nM
[4]
  IC50: 130 nM
MT4
  Activity: Non-Toxic
[5]
  EC50: 9 nM
[6]
  CC50: 1730 nM
[7]
  selectivity ratio: 193

## CCS(=O)(=O)N1CCN(c2ccc(Nc3nccc(Oc4c(C)cc(/C=C/C#N)cc4C)n3)cc2)CC1
[2]
  EC50: > 38600 nM
[8]
  EC50: 240 nM
[3]
  EC50: 2.18 nM
[4]
  IC50: 100 nM
[9]
  EC50: 85 nM
MT4
  Activity: Non-Toxic
[5]
  EC50: 5 nM
[6]
  CC50: > 38600 nM
[10]
  EC50: 450 nM
[11]
  EC50: 48 nM
[12]
  EC50: > 38600 nM
[13]
  EC50: 810 nM
[7]
  selectivity ratio: > 7740

## Cc1cc(C#N)cc(C)c1Oc1ccnc(Nc2ccc(N3CCN(S(=O)(=O)C4CC4)CC3)c(F)c2)n1
[2]
  EC50: > 239000 nM
[3]
  EC50: 8.32 nM
[4]
  IC50: 77 nM
MT4
  Activity: Non-Toxic
[5]
  EC50: 6 nM
[6]
  CC50: > 239000 nM
[7]
  selectivity ratio: > 40600

## CCS(=O)(=O)N1CCC(c2ccc(Nc3nccc(Oc4c(C)cc(/C=C/C#N)cc4C)n3)cc2)CC1
[2]
  EC50: > 38600 nM
[3]
  EC50: 5.7 nM
[4]
  IC50: 71 nM
MT4
  Activity: Non-Toxic
[5]
  EC50: 5 nM
[6]
  CC50: > 38600 nM
[7]
  selectivity ratio: > 7360

## Cc1cc(/C=C/C#N)cc(C)c1Oc1ccnc(Nc2ccc(N3CCN(S(=O)(=O)N(C)C)CC3)cc2)n1
[1]
  selectivity ratio: < 1
[2]
  EC50: > 78100 nM
[3]
  EC50: 28.9 nM
[4]
  IC50: 140 nM
MT4
  Activity: Non-Toxic
[5]
  EC50: 8 nM
[6]
  CC50: 78100 nM
[7]
  selectivity ratio: 10200

## Cc1cc(/C=C/C#N)cc(C)c1Nc1ccnc(Nc2ccc(C#N)cc2)n1 [RILPIVIRINE]
[3]
  EC50: 0.6 nM
[4]
  IC50: 430 nM
MT4
  Activity: Non-Toxic

## Cc1cc(/C=C/C#N)cc(C)c1Oc1ccnc(Nc2ccc(N3CCOCC3)c(F)c2)n1
[1]
  selectivity ratio: 272
[2]
  EC50: 840 nM
[8]
  EC50: 100 nM
[4]
  IC50: 46 nM
[9]
  EC50: 25 nM
[5]
  EC50: 5 nM
[6]
  CC50: 228000 nM
[10]
  EC50: 27 nM
[11]
  EC50: 5 nM
[12]
  EC50: 4190 nM
[13]
  EC50: 44 nM
[7]
  selectivity ratio: 49600

## Cc1cc(/C=C/C#N)cc(C)c1Oc1ccnc(Nc2ccc(C3CCN(S(=O)(=O)C(C)C)CC3)cc2)n1
[1]
  selectivity ratio: < 1
[2]
  EC50: > 2380 nM
[3]
  EC50: 11.9 nM
[4]
  IC50: 130 nM
MT4
  Activity: Non-Toxic
[5]
  EC50: 8 nM
[6]
  CC50: 2380 nM
[7]
  selectivity ratio: 298

## Cc1cn([C@H]2C[C@H](N=[N+]=[N-])[C@@H](CO)O2)c(=O)[nH]c1=O [ZIDOVUDINE]
[2]
  EC50: 37 nM
[3]
  EC50: 15.3 nM
MT4
  Activity: Non-Toxic
[6]
  CC50: > 7480 nM

## Cc1cc(C#N)cc(C)c1Oc1ccnc(Nc2ccc(N3CCN(S(C)(=O)=O)CC3)c(F)c2)n1
[1]
  selectivity ratio: < 1
[2]
  EC50: > 7750 nM
[3]
  EC50: 5.74 nM
[4]
  IC50: 43 nM
MT4
  Activity: Non-Toxic
[5]
  EC50: 6 nM
[6]
  CC50: 7750 nM
[7]
  selectivity ratio: 1240

## Cc1cc(/C=C/C#N)cc(C)c1Oc1ccnc(Nc2ccc(C3CCN(S(=O)(=O)N(C)C)CC3)cc2)n1
[1]
  selectivity ratio: < 1
[2]
  EC50: > 6270 nM
[3]
  EC50: 24.8 nM
[4]
  IC50: 100 nM
MT4
  Activity: Non-Toxic
[5]
  EC50: 9 nM
[6]
  CC50: 6270 nM
[7]
  selectivity ratio: 686

## Cc1cc(/C=C/C#N)cc(C)c1Oc1ccnc(Nc2ccc(C3CCN(S(=O)(=O)C4CC4)CC3)cc2)n1
[2]
  EC50: > 37800 nM
[8]
  EC50: 57 nM
[3]
  EC50: 5.95 nM
[4]
  IC50: 79 nM
[9]
  EC50: 51 nM
MT4
  Activity: Non-Toxic
[5]
  EC50: 5 nM
[6]
  CC50: > 37800 nM
[10]
  EC50: 110 nM
[11]
  EC50: 20 nM
[12]
  EC50: > 37800 nM
[13]
  EC50: 380 nM
[7]
  selectivity ratio: > 7650

## Cc1cc(/C=C/C#N)cc(C)c1Oc1ccnc(Nc2ccc(N3CC[S+]([O-])CC3)c(F)c2)n1
[1]
  selectivity ratio: 10
[2]
  EC50: 1300 nM
[8]
  EC50: 130 nM
[4]
  IC50: 27 nM
[9]
  EC50: 24 nM
[5]
  EC50: 1 nM
[6]
  CC50: 13300 nM
[10]
  EC50: 34 nM
[11]
  EC50: 4 nM
[12]
  EC50: 5120 nM
[13]
  EC50: 84 nM
[7]
  selectivity ratio: 9800

## Cc1cc(C#N)cc(C)c1Oc1nc(Nc2ccc(C#N)cc2)nc(N)c1Br [ETRAVIRINE]
[2]
  EC50: 76 nM
[8]
  EC50: 25 nM
[6]
  CC50: > 4590 nM
[11]
  EC50: 1 nM
